Laboratory results: patent publication US20070225255A1, “Use of Mitochondrially Targeted Antioxidant in the Treatment of Liver Diseases and Epithelial Cancers” (priority 2004, published 2007)

How the values were obtained:
[1] = tested on: DDC intoxicated mice; assay: Long term (10 weeks) DDC intoxication, liver histology (cell ballooning, Mallory bodies); details: then 1 week without DDC with two injections of MitoQ
Protocol: Furthermore, single-label immunohistochemistry or double-label immunoflourescence microscopy is performed to detect MBs in tested animals.
In long term experiments by using mice intoxicated with DDC (for 8-10 weeks) the presence (or absence) of cell ballooning and/or Mallory bodies (MBs) in liver samples of treated animals is determined and compared to the control groups of animals.
In another set of experiments, after 10 weeks of DDC intoxication tested animals receive i.p. injections of MitoQ (1.25 mg/kg) twice within subsequent 7 days (day 1 and day 4 of the corresponding week), and are analysed by routine histology (standard haematoxylin/eosin staining according to Luna L. G., 1968, Manual of Histologic staining methods of the Armed Forces Institute of Pathology, 3rd edition. McGraw Hill, New York).

[2] = tested on: DDC intoxicated mice; assay: Short term (3 days) DDC intoxication, liver histology (H&E); details: DDC 3 days
Protocol: Liver samples prepared according to Example 1 are used for simple histologic staining such as with haematoxylin and eosin (Luna L. G., 1968, Manual of Histologic staining methods of the Armed Forces Institute of Pathology, 3rd edition. McGraw Hill, New York). Furthermore, single-label immunohistochemistry or double-label immunoflourescence microscopy is performed to detect MBs in tested animals.
In another set of experiments 3 to 12 mg/kg of MitoQ dissolved in 1% of DMSO in PBS is given intraperitoneally simultaneously to DDC intoxicated mice for 3 days and compared to control animals (positive control group represents DDC intoxicated mice whereas negative control represents non DDC intoxicated but vehicle injected animals).

[3] = tested on: mitochondria within isolated cells; details: in vitro; cited from earlier work
[4] = fed in drinking water for 3 to 7 days, 500 μM or 1 mM (MitoVit E 500 μM); cited from earlier work

With MitoQ the “accumulation of protoporphyrin in bile ducts” value [1] was “markedly reduced”, the “inflammatory cells around the portal vein” value ([2]; simultaneous MitoQ 6 mg/kg) was “Absence of inflammatory cells” and the “morphology of the hepatocytes (size and morphology of nuclei, structure of cytoplasm)” value ([2]; simultaneous MitoQ 6 mg/kg) was “normal”. For the same substance, the “liver architecture (strands of hepatocytes bordered by sinusoids)” value ([2]; simultaneous MitoQ in PBS/1% DMSO, 6 mg/kg) was “normal architecture again is visible”, the accumulation by mitochondria [3] was “rapidly and selectively accumulated by mitochondria” and the “gross signs of toxicity” value [4] was “without any gross signs of toxicity”.
